# Where two headings read alike, the source gives them in different places.
# Key:
# Test in all cases: Test F pre-/postemergence plant response
# Type in all cases: in vivo
# [1] = system: Italian ryegrass (Lolium multiflorum); conditions: Lolium multiflorum, scale 0 to 100, read-out: Plant response rating, Ryegrass, Italian; for pest or weed control at 16 g/ha: 16 g ai/ha; for pest or weed control at 31 g/ha: 31 g ai/ha; for pest or weed control at 125 g/ha: 125 g ai/ha
# Summary of the method: (§1)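 Formulation: non-phytotoxic solvent mix + surfactant. Preemergence: applied to seeded silt loam. Postemergence: foliar, 1- to 4-leaf plants, 2–18 cm. Greenhouse hold 14–21 days; visual score vs controls, 0 = no effect, 100 = complete control; dash = not tested.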
# [2] = system: surinam grass (Brachiaria decumbens); conditions: Urochloa decumbens, pre-emergence, scale 0 to 100, read-out: Plant response rating, Surinam Grass
# Summary of the method: as §1
# [3] = system: morningglory (Ipomoea coccinea); conditions: Ipomoea, pre-emergence, scale 0 to 100, read-out: Plant response rating, Morningglory
# Summary of the method: as §1
# [4] = system: green foxtail (Setaria viridis); conditions: Setaria viridis, pre-emergence, Preemergence, scale 0 to 100, read-out: Plant response rating, Foxtail, Green
# Summary of the method: as §1
# [5] = system: giant foxtail (Setaria faberii); conditions: Setaria faberi, pre-emergence, scale 0 to 100, read-out: Plant response rating, Foxtail, Giant
# Summary of the method: as §1
# kochia (Kochia scoparia) = conditions: Bassia scoparia, scale 0 to 100, read-out: Plant response rating, Kochia; for pest or weed control at 16 g/ha: 16 g ai/ha; for pest or weed control at 31 g/ha: 31 g ai/ha; for pest or weed control at 125 g/ha: 125 g ai/ha
# Summary of the method: as §1
# [6] = system: waterhemp (common waterhemp, Amaranthus rudis); conditions: Amaranthus tuberculatus, scale 0 to 100, read-out: Plant response rating, Waterhemp
# Summary of the method: as §1
# [7] = system: lambsquarters (Chenopodium album); conditions: Chenopodium album, pre-emergence, Preemergence, scale 0 to 100, read-out: Plant response rating, Lambsquarters
# Summary of the method: as §1
# [8] = system: ragweed (common ragweed, Ambrosia elatior); conditions: Ambrosia artemisiifolia, scale 0 to 100, read-out: Plant response rating, Ragweed
# Summary of the method: as §1
# [9] = post-emergence, 62 g ai/ha, Postemergence
# [10] = post-emergence, 16 g ai/ha Postemergence
# [11] = post-emergence, 31 g ai/ha Postemergence
# [12] = post-emergence, 62 g ai/ha Postemergence
# [13] = post-emergence, 125 g ai/ha Postemergence
# [14] = pre-emergence, 16 g ai/ha Preemergence
# [15] = pre-emergence, 31 g ai/ha Preemergence
# [16] = pre-emergence, 125 g ai/ha Preemergence
smiles,measurement,setting,value
"Fc1cccc(Oc2ncc(Cl)cn2)c1-c1cc(C(F)F)no1 [Compound 144, 5-chloro-2-[2-[3-(difluoromethyl)-5-isoxazolyl]-3-fluorophenoxy]pyrimidine]",pest or weed control at 16 g/ha,"[1]; post-emergence, Postemergence",10%
same,pest or weed control at 31 g/ha,"[1]; post-emergence, Postemergence",20%
same,pest or weed control at 62 g/ha,[1]; [9],20%
same,pest or weed control at 125 g/ha,"[1]; post-emergence, Postemergence",40%
same,pest or weed control at 16 g/ha,"[1]; pre-emergence, Preemergence",0%
same,pest or weed control at 31 g/ha,"[1]; pre-emergence, Preemergence",0%
same,pest or weed control at 125 g/ha,"[1]; pre-emergence, Preemergence",100%
same,pest or weed control at 62 g/ha,"[1]; pre-emergence, Preemergence",40%
same,pest or weed control at 16 g/ha,[2]; 16 g ai/ha Preemergence,0%
same,pest or weed control at 31 g/ha,[2]; 31 g ai/ha Preemergence,75%
same,pest or weed control at 125 g/ha,[2]; 125 g ai/ha Preemergence,80%
same,pest or weed control at 62 g/ha,[2]; Preemergence,75%
same,pest or weed control at 16 g/ha,[3]; 16 g ai/ha Preemergence,0%
same,pest or weed control at 31 g/ha,[3]; 31 g ai/ha Preemergence,0%
same,pest or weed control at 125 g/ha,[3]; 125 g ai/ha Preemergence,95%
same,pest or weed control at 62 g/ha,[3]; Preemergence,65%
same,pest or weed control at 16 g/ha,[4]; 16 g ai/ha,25%
same,pest or weed control at 31 g/ha,[4]; 31 g ai/ha,95%
same,pest or weed control at 125 g/ha,[4]; 125 g ai/ha,100%
same,pest or weed control at 62 g/ha,[4],98%
same,pest or weed control at 16 g/ha,[5]; 16 g ai/ha Preemergence,15%
same,pest or weed control at 31 g/ha,[5]; 31 g ai/ha Preemergence,90%
same,pest or weed control at 62 g/ha,[5]; 62 g ai/ha Preemergence,95%
same,pest or weed control at 125 g/ha,[5]; 125 g ai/ha Preemergence,100%
same,pest or weed control at 16 g/ha,"kochia (Kochia scoparia); post-emergence, Postemergence",95%
same,pest or weed control at 31 g/ha,"kochia (Kochia scoparia); post-emergence, Postemergence",95%
same,pest or weed control at 62 g/ha,kochia (Kochia scoparia); [9],95%
same,pest or weed control at 125 g/ha,"kochia (Kochia scoparia); post-emergence, Postemergence",95%
same,pest or weed control at 16 g/ha,"kochia (Kochia scoparia); pre-emergence, Preemergence",98%
same,pest or weed control at 31 g/ha,"kochia (Kochia scoparia); pre-emergence, Preemergence",100%
same,pest or weed control at 125 g/ha,"kochia (Kochia scoparia); pre-emergence, Preemergence",100%
same,pest or weed control at 62 g/ha,"kochia (Kochia scoparia); pre-emergence, Preemergence",100%
same,pest or weed control at 16 g/ha,[6]; [10],100%
same,pest or weed control at 31 g/ha,[6]; [11],100%
same,pest or weed control at 62 g/ha,[6]; [12],100%
same,pest or weed control at 125 g/ha,[6]; [13],100%
same,pest or weed control at 16 g/ha,[6]; [14],98%
same,pest or weed control at 31 g/ha,[6]; [15],100%
same,pest or weed control at 125 g/ha,[6]; [16],100%
same,pest or weed control at 62 g/ha,"[6]; pre-emergence, Preemergence",100%
same,pest or weed control at 16 g/ha,[7]; 16 g ai/ha,100%
same,pest or weed control at 31 g/ha,[7]; 31 g ai/ha,100%
same,pest or weed control at 125 g/ha,[7]; 125 g ai/ha,100%
same,pest or weed control at 62 g/ha,[7],100%
same,pest or weed control at 16 g/ha,[8]; [10],50%
same,pest or weed control at 31 g/ha,[8]; [11],50%
same,pest or weed control at 62 g/ha,[8]; [12],85%
same,pest or weed control at 125 g/ha,[8]; [13],90%
same,pest or weed control at 16 g/ha,[8]; [14],0%
same,pest or weed control at 31 g/ha,[8]; [15],0%
same,pest or weed control at 125 g/ha,[8]; [16],85%

# From patent publication US10131652B2, “Pyrimidinyloxy benzene derivatives as herbicides” (E. I. DU PONT DE NEMOURS AND COMPANY, priority 2014, dated 2018)
